The values that follow come from BindingDB's records for doi:10.1016/j.ejmech.2016.06.010 (Monash University, 2016).

SMILES strings stand for the structures.

A short description of assay [1]: Inhibition of PI3Kbeta in human washed platelets assessed as suppression of ADP-induced platelet aggregation preincubated for 5 mins followed by ADP stimulation after 10 mins by light transmission aggregometric analysis.
A short description of assay [2]: Inhibition of PI3Kbeta in human platelet-rich plasma assessed as suppression of ADP-induced platelet aggregation preincubated for 5 mins followed by ADP stimulation after 10 mins by light transmission aggregometric analysis.
Assay [3] concerns the target Phosphatidylinositol 4,5-bisphosphate 3-kinase catalytic subunit beta isoform (Homo sapiens, UniProt P42338). Briefly: Inhibition of PI3Kbeta in human washed platelets assessed as suppression of ADP-induced platelet aggregation preincubated for 5 mins followed by ADP stimulation after 10 mins by light transmission aggregometric analysis.

Phosphatidylinositol 4,5-bisphosphate 3-kinase catalytic subunit beta isoform, sequence (P42338 whole entry, canonical isoform): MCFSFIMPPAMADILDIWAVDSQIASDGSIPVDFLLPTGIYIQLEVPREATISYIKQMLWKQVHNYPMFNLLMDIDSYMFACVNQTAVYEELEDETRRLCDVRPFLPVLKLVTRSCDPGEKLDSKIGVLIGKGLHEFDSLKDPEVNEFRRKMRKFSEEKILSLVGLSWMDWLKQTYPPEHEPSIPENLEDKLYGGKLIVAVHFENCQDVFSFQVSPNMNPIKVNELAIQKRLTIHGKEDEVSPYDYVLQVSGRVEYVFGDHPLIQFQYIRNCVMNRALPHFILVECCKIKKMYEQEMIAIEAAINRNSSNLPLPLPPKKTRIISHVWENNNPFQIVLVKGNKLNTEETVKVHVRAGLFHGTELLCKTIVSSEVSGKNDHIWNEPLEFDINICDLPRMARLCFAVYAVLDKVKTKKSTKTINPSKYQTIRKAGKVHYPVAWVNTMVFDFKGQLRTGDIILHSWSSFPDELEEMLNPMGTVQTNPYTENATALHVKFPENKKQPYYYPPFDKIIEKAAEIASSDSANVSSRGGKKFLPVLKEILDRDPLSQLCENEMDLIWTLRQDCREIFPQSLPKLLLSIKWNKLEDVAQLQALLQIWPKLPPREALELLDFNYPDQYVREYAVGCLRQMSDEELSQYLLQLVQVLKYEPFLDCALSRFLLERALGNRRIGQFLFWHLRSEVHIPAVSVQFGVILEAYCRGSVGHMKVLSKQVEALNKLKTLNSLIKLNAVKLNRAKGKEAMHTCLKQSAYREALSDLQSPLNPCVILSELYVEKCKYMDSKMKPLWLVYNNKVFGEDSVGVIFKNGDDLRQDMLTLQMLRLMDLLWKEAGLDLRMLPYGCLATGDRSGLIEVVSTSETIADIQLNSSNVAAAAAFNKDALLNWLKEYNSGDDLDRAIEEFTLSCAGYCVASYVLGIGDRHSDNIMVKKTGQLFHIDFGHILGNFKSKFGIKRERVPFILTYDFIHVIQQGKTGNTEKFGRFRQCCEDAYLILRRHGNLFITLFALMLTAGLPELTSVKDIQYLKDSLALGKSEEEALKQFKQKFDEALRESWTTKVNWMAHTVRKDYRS

For `O=C([C@H]1CCCN1)N1CCN(c2nc(N3CCOCC3)nc(-n3c(C(F)F)nc4ccccc43)n2)CC1`, in assay [1], the IC50 came to 30 nM.

Consider `N[C@@H](Cc1ccccc1)C(=O)N1CCN(c2nc(N3CCOCC3)nc(-n3c(C(F)F)nc4ccccc43)n2)CC1`, for which the IC50 in assay [2] stood at 2800 nM; in assay [3], 30 nM. `O=C([C@@H]1CCCN1)N1CCN(c2nc(N3CCOCC3)nc(-n3c(C(F)F)nc4ccccc43)n2)CC1`: the IC50 in assay [1] came out at 30 nM.

What is called IC50 is the concentration that inhibits the measured activity by half.
